Reference: patent US9896423B2, “Deuterium substituted 1-[2-(2,4-dimethyl-phenylsulfanyl)-phenyl]piperazine compound or derivatives thereof, and pharmaceutical composition and use thereof” (Jiangsu Jibeier Pharmaceutical Co. Ltd., priority 2014, dated 2018)
Several values for one entry are separate records, joined by “and”; a condition that tells them apart may be missing. Equal values may be shown once. Where a name gives a salt, the structure may show the parent alone. Read-outs that look alike come from different tables or passages of the source.

How the values were obtained:
[1] = Pharmacokinetic test in rats, gavage administration; format: in vivo, SD rats
Description: The preferred compound of the present disclosure was assessed in rats for its pharmacokinetic profile.
SD rats, male and female, weighing 150 to 250 g
Mobile phase: 10 mM ammonium formate aqueous solution:methanol=15:85
The ionization source was electrospray ionization source. The detection mode was positive mode. Multiple reaction monitoring (MRM) was used as the scanning mode. The ion reaction for the quantitative analysis was the following: m/z was 305.2\150.0 for XX, and 256.1\167.1 for diphenhydramine (the internal standard).
XX or YY was orally administered with single dose of 20 mg/kg to six SD rats, one half of which were male and the other half was female. XX or YY was dissolved in 10% hydroxypropyl-β-cyclodextrin. […]
After the blood collection, the tubes were immediately gently turned upside down at least five times to ensure sufficient mixing, and placed on ice. Heparin was added for anticoagulation. The samples were centrifuged at 8000 rpm for 5 min to separate serum from erythrocyte. The serum was transferred with a pipettor to 2 mL polypropylene (PP) tubes, which were marked with the name of the compound and the time points, and stored in a refrigerator at −40° C. before LC-MS analysis. Samples with high concentrations were diluted with rat blank plasma.
2.5 μL of Meth-H2O and 5 μL of the internal standard solution (20 ng/mL, IS) were added to 50 μL of the plasma. Subsequently, 150 μL of methanol was added to the mixture to precipitate protein and the samples were then centrifuged at 13000 rpm for 5 min. The upper organic phase was taken out, filtrated with a 0.22 μM microporous membrane, and 2 μL of the sample was injected for the LC-MS analysis.

Male SD rats = assay: Rats swimming test; format: in vivo; details: for effect on length of time that the rats stopped swimming vs blank control: 14 days; for Duration without Move within 5 min: rats swimming, gavage 14 days, n = 10, x ± s
Text: (§1) The following method is used for testing the antidepression effect of the compound of the present application. ICR mice or SD rats, gavaged for two successive weeks, were subjected to mice swimming test, mice tail suspension test and rats swimming test. See below for details of the tests and results.
Male SD rats weighing 200 to 220 g were used and they were fed with sterilized standard feed. The medicaments were the same as those in the mice tail suspension test, but the dosage administered to rats was half of that to mice.
Drug solution preparation: Since the dosage applied on rats was 1 ml/100 g body weight, the medicament solutions used in this test had the same concentrations as those used on mice.
The apparatus was the same as that in the […].
The rats were fasted for 4 hours, put in a round glass tank (ø 18 cm×h 40 cm, with water of 15 cm depth and at a temperature of 25° C.), and were allowed to swim for 15 min. One tank accommodated one rat at a time. The tank was refilled with clean water for another rat after one rat finished swimming. The rats were dried with a hot-air blower after swimming.
The forty rats were divided into 4 groups, each of which has 10 rats, according to the Excel random grouping.
The medicaments were correspondingly administered 1 ml/100 g body weight by gavage, once a day, to the animals in each test group for 14 successive days. The rat swimming test was performed one hour later after the last administration.
The data was given as “average±standard deviation” (x±s). One-way analysis of variance (ANOVA) was used for data difference statistics. Differences among the groups were determined by P<0.05.

Male ICR mice = assay: Mice swimming test; format: in vivo; details: for effect on length of time that the mice stopped swimming vs blank control: two successive weeks; for Duration without Movement within the Last 4 min of the Whole 6 min: mice, gavage once a day for 14 days, n = 10, x ± s
Text: as §1
Male ICR mice weighing 18 g to 20 g were used. They were fed on sterilized standard feed.
The compound administered in the test was 1-{2-[2,4-bis(trideuteriomethyl)phenylsulfanyl]phenyl}piperazine hydrobromic acid salt (XX for short). Vortioxetine (YY for short) was used as a control sample. Venlafaxine HCl (from Wyeth, USA) was used as a positive control.
Vortioxetine (15 mg) was combined with 10% hydroxypropyl-β-cyclodextrin to form a solution of 100 mL and was administered at daily dose of 3 mg/kg. 1-{2-[2,4-bis(trideuteriomethyl)phenylsulfanyl]phenyl}piperazine hydrobromic acid salt (15 mg and 7.5 mg) was combined with 10% hydroxypropyl-β-cyclodextrin to form two solutions of 100 mL and was administered at daily doses of 3 mg/kg and 1.5 mg/kg, respectively. Venlafaxine HCl (75 mg) was combined with 0.5% CMC-Na to form a solution of 100 mL and was administered at daily dose of […].
A recording and analysis system for small-animal behavior (Noldus) was used.
All the eighty mice were subjected to prescreening one day before the administration. The mice, fasted for 4 hours were put in a round glass tank (ø 14 cm×h 20 cm, with water of 10 cm depth and at a temperature of 25° C.) to swim. […] The whole swimming course was recorded by the video and the data were collected and analyzed automatically by Noldus software.
The forty qualified mice were divided into 4 groups, each of which had 10 mice, according to the Excel random grouping.
The medicaments were administered to each group by gavage with the amount of 0.2 ml per 10 g of body weight, once a day for 14 successive days. One hour later after the last oral administration, the mice were allowed to swim for 6 min. The video recorded the whole swimming course, and the Noldus software automatically collected and analyzed the data.
The data was given as “average±standard deviation” (x±s). One-way analysis of variance (one-way ANOVA) was used for data difference statistics. Differences among the groups were determined by P<0.05.

[2] = both sexes, Sprague-Dawley, rat, plasma, oral, 20 mg/kg, 20 mg/kg oral, individual rats 1-6, read-out: Concentrations in Plasma of Rats after Oral Administration
[3] = both sexes, Sprague-Dawley, rat, plasma, oral, 20 mg/kg, 20 mg/kg oral, mean of 6 rats, read-out: Concentrations in Plasma of Rats after Oral Administration, Mean ± SD
[4] = rats, oral 20 mg/kg, individual rats 1-6, 20 mg/kg

`[2H]C([2H])([2H])c1ccc(Sc2ccccc2N2CCNCC2)c(C([2H])([2H])[2H])c1` [XX, 1-{2-[2,4-bis(trideuteriomethyl)phenylsulfanyl]phenyl}piperazine hydrobromic acid salt] showed a concentration at 3 h ([1]; both sexes, Sprague-Dawley, rat, plasma, oral, 20 mg/kg, 20 mg/kg oral, 3 h, mean of 6 rats, read-out: Concentrations in Plasma of Rats after Oral Administration, Mean ± SD) of 68.7 ± 12 ng/mL, a concentration at 4 h [1, 2] of 63.4 ng/mL and a concentration at 4 h [1, 3] of 65.1 ± 10.4 ng/mL. It also gave a concentration at 6 h [1, 2] of 46.1 ng/mL, a concentration at 6 h [1, 3] of 44.1 ± 7.27 ng/mL and a concentration at 8 h [1, 2] of 22.1 ng/mL. The concentration at 8 h [1, 3] was 23.5 ± 4.49 ng/mL, the concentration at 10 h [1, 2] was 16.7 ng/mL and the concentration at 10 h [1, 3] was 16.5 ± 2.41 ng/mL. For the same molecule, the concentration at 12 h [1, 2] was 8.86 ng/mL, the concentration at 12 h [1, 3] was 8.24 ± 1.69 ng/mL and the concentration at 14 h ([1]; both sexes, Sprague-Dawley, rat, plasma, oral, 20 mg/kg, 20 mg/kg oral, 14 h, mean of 6 rats, read-out: Concentrations in Plasma of Rats after Oral Administration, Mean ± SD) was 4.27 ± 1.58 ng/mL. The concentration at 24 h ([1]; both sexes, Sprague-Dawley, rat, plasma, oral, 20 mg/kg, 20 mg/kg oral, 24 h, mean of 6 rats, read-out: Concentrations in Plasma of Rats after Oral Administration, Mean ± SD) was 0.75 ± 0.51 ng/mL, the bioavailability ([1]; both sexes, Sprague-Dawley, rat, plasma, oral, 20 mg/kg, rats, oral 20 mg/kg vs iv 2 mg/kg, n = 6, read-out: F % (absolute bioavailability), Mean ± SD) was 12.2 ± 1.72% and the AUC(0-t) ([1]; both sexes, Sprague-Dawley, rat, plasma, po, 20 mg/kg, gavage administration of 20 mg/kg, rats, read-out: AUC0-t in the rats' plasma) was 583 ± 82.7 ng·h/mL. The “AUC0-t increased comparing with that of its non-deuterium counterpart” value ([1]; rats, gavage 20 mg/kg, relative to Vortioxetine) was 19%, the F % ([1]; rats, oral 20 mg/kg vs iv 2 mg/kg, individual rats 1-6) was 11.5% and 10.1% and 13.8% and 14.6% and 11.9% and the “AUC0-t (area under the plasma concentration-time curve from zero to the last sampling time)” value [1, 4] was 552.3 ng·h/mL and 487.5 ng·h/mL and 659.3 ng·h/mL and 703.9 ng·h/mL and 569.8 ng·h/mL. The “AUC0-∞” value [1, 4] was 552.5 ng·h/mL and 488.9 ng·h/mL and 666.0 ng·h/mL and 705.3 ng·h/mL and 571.4 ng·h/mL, the Cmax [1, 4] was 91.6 ng/mL and 77.8 ng/mL and 120.8 ng/mL and 144 ng/mL and 115.8 ng/mL and the “MRT0-∞” value [1, 4] was 4.92 h and 5.44 h and 5.08 h and 4.24 h and 4.28 h. For the same molecule, the t1/2 [1, 4] was 4.0 h and 1.7 h and 2.8 h and 3.5 h and 2.6 h and 2.9 h, the “effect on length of time that the rats stopped swimming vs blank control” value (Male SD rats; 0.75 mg/kg gavage) was “showed a tendency to shorten” and the “effect on length of time that the rats stopped swimming vs blank control” value (Male SD rats; 1.5 mg/kg gavage) was “markedly shortened”. The “Duration without Move within 5 min” value (Male SD rats; 0.75 mg/kg) was 242.4 ± 43.2 s, the “Duration without Move within 5 min” value (Male SD rats; 1.5 mg/kg) was 226.2 ± 43.2 s and the “effect on length of time that the mice stopped swimming vs blank control” value (Male ICR mice; 1.5 mg/kg gavage) was “markedly shortened”. The “effect on length of time that the mice stopped swimming vs blank control” value (Male ICR mice; 3 mg/kg gavage) was “markedly shortened”, the “Duration without Movement within the Last 4 min of the Whole 6 min” value (Male ICR mice; 1.5 mg/kg) was 173.4 ± 36.1 s and the “Duration without Movement within the Last 4 min of the Whole 6 min” value (Male ICR mice; 3 mg/kg) was 176.3 ± 37.5 s.
